According to patent US7381541B2, “Methods for producing animal feed preparations with astaxanthin-containing plants or parts of plants of the genus Tagetes” (SunGene GmbH & Co. KGaA, priority 2002, dated 2008):

Tested on: trout
Assay: Oral administration to trout in a standard trout feed: examination of bioavailability, pigmenting and performance parameters
Format: in vivo
Conditions: 8 weeks
Description: The trout feed comprising the inventive astaxanthin pigments is produced in accordance with Example IV and administered orally to trout (mean live mass 180 g). 3 concentrations are tested: 10, 20 and 40 mg of astaxanthin from the inventive astaxanthin pigmenting per kg of diet.
The trout are raised as described hereinafter: • The trout are given as standard an adaptation phase of 14 days. • During the feeding experiment, 10 trout are kept per pool in constant-flow plastic tanks of volume 80 l of water. The water temperature is 15° C. The water is biologically purified and at least 10% of the total amount of water is replaced by fresh water per day. • The illumination period is 12 hours per day to avoid premature sexual maturation of the animals. • The number of pools per treatment is 3. This is equivalent to 30 trout per dose level. • The diets are stored at −20° C. to avoid astaxanthin losses. The feed is thawed by portions (weekly) and administered. • The experimental period is 8 weeks. […]
The average feed consumption per fish, feed conversion and live mass gain are statistically evaluated.
The pigmenting of the fish is measured by reflectance spectrophotometric measurements (Minolta a value =red value at the fillet incision) and by determining the astaxanthin content (mg/kg) in the fillet in each case compared with the negative control.

## CC1=C(/C=C/C(C)=C/C=C/C(C)=C/C=C/C=C(C)/C=C/C=C(C)/C=C/C2=C(C)C(=O)[C@@H](O)CC2(C)C)C(C)(C)C[C@H](O)C1=O [synthetic astaxanthin, astaxanthin]
  performance parameters (feed intake, feed utilization, live mass gain): differences between or within treatments: no statistically secured differences
